Test results as given in ChEMBL document CHEMBL5120893, “A Neuropeptide Y/F-like Polypeptide Derived from the Transcriptome of Turbinaria peltata Suppresses LPS-Induced Astrocytic Inflammation” (J Nat Prod, 2022).
Active and inactive are the calls of the source. Residues, ends and D or L forms follow the SMILES beside them.

Experiments:
[1] = tested on: C8-D1A; experiment: Antiinflammatory activity against mouse C8D1A cells assessed as inhibition of LPS-induced IL-1beta production at 0.75 to 3 uM pretreated for 4 hrs followed by LPS stimulation measured after 24 hrs by ELISA; format: functional, cell-based; settings: dose 0.75-3 µM, time 28.0 hrs
[2] = tested on: C8-D1A; experiment: Antiinflammatory activity against mouse C8D1A cells assessed as inhibition of LPS-induced GFAP production at 0.75 to 3 uM pretreated for 4 hrs followed by LPS stimulation measured after 24 hrs by DMI-8 microscopy; format: functional, cell-based; settings: dose 0.75-3 µM, time 28.0 hrs
[3] = molecular target: Inhibitor of nuclear factor kappa-B kinase subunit alpha/beta (Mus musculus) (UniProt Q60680+O88351); experiment: Inhibition of IKKalpha/beta phosphorylation at Ser176/180 in LPS-induced mouse C8D1A cells at 0.75 to 3 uM pretreated for 4 hrs followed by LPS stimulation measured after 24 hrs by Western blotting analysis; format: cell-based; settings: dose 0.75-3 µM
[4] = tested on: C8-D1A; experiment: Antiinflammatory activity against mouse C8D1A cells assessed as inhibition of LPS-induced iNOS expression at 3 uM by Western blotting analysis; format: functional, cell-based
[5] = tested on: C8-D1A; experiment: Effect on LPS-induced inflammasome activation in mouse C8D1A cells assessed as reduction in caspase 1 protein level at 0.75 to 3 uM by Western blotting analysis; format: functional, cell-based; settings: dose 0.75-3 µM
[6] = tested on: C8-D1A; experiment: Inhibition of LPS-induced mouse C8D1A cell viability loss assessed as restoration of cell viability at 0.75 to 6 uM after 24 hrs by MTT assay; format: functional, cell-based; settings: dose 0.75-6 µM
[7] = tested on: C8-D1A; experiment: Antiinflammatory activity against mouse C8D1A cells assessed as inhibition of LPS-induced IL-1beta mRNA expression at 0.75 to 3 uM pretreated for 4 hrs followed by LPS stimulation measured after 24 hrs by real time PCR analysis; format: functional, cell-based; settings: dose 0.75-3 µM, time 28.0 hrs
[8] = tested on: C8-D1A; experiment: Antiinflammatory activity against mouse C8D1A cells assessed as inhibition of LPS-induced iNOS production by Western blotting analysis; format: functional, cell-based; settings: dose 0.75-3 µM, DDE = dose-dependent effect
[9] = tested on: C8-D1A; experiment: Antiinflammatory activity against mouse C8D1A cells assessed as inhibition of LPS-induced IL-6 mRNA expression at 0.75 to 3 uM pretreated for 4 hrs followed by LPS stimulation measured after 24 hrs by real time PCR analysis; format: functional, cell-based; settings: dose 0.75-3 µM, time 28.0 hrs
[10] = tested on: C8-D1A; experiment: Antiinflammatory activity against mouse C8D1A cells assessed as inhibition of LPS-induced NO production measured after 24 hrs by Griess method; format: functional, cell-based; settings: dose 0.75-6 µM, DDE = dose-dependent effect
[11] = tested on: C8-D1A; experiment: Cytotoxicity against mouse C8D1A cells assessed as cell viability at 0.75 to 50 uM after 24 hrs by MTT assay; format: toxicity, cell-based; settings: dose 0.75-50 µM
[12] = tested on: C8-D1A; experiment: Antiinflammatory activity against mouse C8D1A cells assessed as inhibition of LPS-induced NO production at 3 uM measured after 24 hrs in presence of Y1R antagonist BIIE-0246 by Griess method; format: functional, cell-based
[13] = tested on: C8-D1A; experiment: Antiinflammatory activity against mouse C8D1A cells assessed as inhibition of LPS-induced TNFalpha production at 0.75 to 3 uM pretreated for 4 hrs followed by LPS stimulation measured after 24 hrs by ELISA; format: functional, cell-based; settings: dose 0.75-3 µM, time 28.0 hrs
[14] = molecular target: T1, Inhibitor of nuclear factor kappa-B kinase subunit beta (Mus musculus) (UniProt O88351); experiment: Inhibition of IkappaBalpha phosphorylation at […] in LPS-induced mouse C8D1A cells at 0.75 to 3 uM pretreated for 4 hrs followed by LPS stimulation measured after 24 hrs by Western blotting analysis; format: cell-based; settings: dose 0.75-3 µM
T1 sequence (whole entry): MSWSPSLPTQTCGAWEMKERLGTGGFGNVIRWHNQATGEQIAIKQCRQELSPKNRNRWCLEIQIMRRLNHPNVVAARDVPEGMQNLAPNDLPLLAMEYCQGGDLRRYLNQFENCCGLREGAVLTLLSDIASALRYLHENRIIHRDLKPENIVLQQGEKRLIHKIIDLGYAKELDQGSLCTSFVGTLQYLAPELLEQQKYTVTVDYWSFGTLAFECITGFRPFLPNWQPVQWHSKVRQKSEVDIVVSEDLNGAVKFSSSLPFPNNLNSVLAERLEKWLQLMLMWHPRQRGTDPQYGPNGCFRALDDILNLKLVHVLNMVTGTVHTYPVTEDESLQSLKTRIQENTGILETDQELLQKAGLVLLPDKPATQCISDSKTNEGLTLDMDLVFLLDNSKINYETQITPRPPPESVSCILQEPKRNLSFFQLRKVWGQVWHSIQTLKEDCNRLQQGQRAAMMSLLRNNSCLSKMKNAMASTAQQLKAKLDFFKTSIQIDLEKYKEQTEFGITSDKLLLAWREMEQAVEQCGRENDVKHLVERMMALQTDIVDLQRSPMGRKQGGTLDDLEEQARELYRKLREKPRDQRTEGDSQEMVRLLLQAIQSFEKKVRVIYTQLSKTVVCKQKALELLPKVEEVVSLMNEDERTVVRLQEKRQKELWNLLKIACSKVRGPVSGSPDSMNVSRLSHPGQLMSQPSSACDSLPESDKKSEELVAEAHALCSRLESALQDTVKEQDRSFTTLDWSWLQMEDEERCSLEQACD

[15] = tested on: C8-D1A; experiment: Antiinflammatory activity against mouse C8D1A cells assessed as inhibition of LPS-induced IL-6 production at 0.75 to 3 uM pretreated for 4 hrs followed by LPS stimulation measured after 24 hrs by ELISA; format: functional, cell-based; settings: dose 0.75-3 µM, time 28.0 hrs
[16] = tested on: C8-D1A; experiment: Effect on LPS-induced inflammasome activation in mouse C8D1A cells assessed as reduction in NLRP3 protein level at 0.75 to 3 uM by Western blotting analysis; format: functional, cell-based; settings: dose 0.75-3 µM
[17] = tested on: C8-D1A; experiment: Antiinflammatory activity against mouse C8D1A cells assessed as inhibition of LPS-induced ROS production measured after 24 hrs by fluorescent CM-H2DCFDA based flow cytometry; format: functional, cell-based; settings: dose 0.75-3 µM, DDE = dose-dependent effect
[18] = tested on: C8-D1A; experiment: Antiinflammatory activity against mouse C8D1A cells assessed as inhibition of LPS-induced iNOS expression at 3 uM in presence of Y1R antagonist BIIE-0246 by Western blotting analysis; format: functional, cell-based
[19] = tested on: C8-D1A; experiment: Antiinflammatory activity against mouse C8D1A cells assessed as inhibition of LPS-induced TNFalpha mRNA expression at 0.75 to 3 uM pretreated for 4 hrs followed by LPS stimulation measured after 24 hrs by real time PCR analysis; format: functional, cell-based; settings: dose 0.75-3 µM, time 28.0 hrs
[20] = tested on: C8D1A; experiment: Inhibition of NFkappaB p65 phosphorylation at […] in LPS-induced mouse C8D1A cells at 0.75 to 3 uM pretreated for 4 hrs followed by LPS stimulation measured after 24 hrs by Western blotting analysis; format: cell-based; settings: dose 0.75-3 µM
[21] = tested on: C8-D1A; experiment: Antiinflammatory activity against mouse C8D1A cells assessed as inhibition of LPS-induced NO production at 3 uM measured after 24 hrs by Griess method; format: functional, cell-based

CC[C@H](C)[C@H](NC(=O)[C@@H](NC(=O)[C@@H](NC(=O)[C@H](Cc1ccc(O)cc1)NC(=O)[C@H](Cc1ccc(O)cc1)NC(=O)CNC(=O)[C@H](C)NC(=O)[C@H](CC(C)C)NC(=O)[C@H](CC(=O)O)NC(=O)[C@H](CO)NC(=O)[C@H](CC(C)C)NC(=O)[C@H](Cc1ccc(O)cc1)NC(=O)[C@H](C)NC(=O)[C@H](CC(N)=O)NC(=O)[C@H](CC(C)C)NC(=O)[C@H](CCC(=O)O)NC(=O)[C@H](C)NC(=O)[C@H](CCSC)NC(=O)[C@H](CO)NC(=O)[C@H](CCCCN)NC(=O)[C@H](Cc1ccccc1)NC(=O)[C@H](CO)NC(=O)[C@H](CCC(=O)O)NC(=O)[C@@H]1CCCN1C(=O)[C@H](CCCNC(=N)N)NC(=O)[C@H](CCCCN)NC(=O)[C@@H]1CCCN1C(=O)[C@@H]1CCCN1C(=O)CNC(=O)CNC(=O)[C@@H](N)C(C)C)[C@@H](C)O)C(C)C)C(=O)NCC(=O)N[C@@H](CCCNC(=N)N)C(=O)N1CCC[C@H]1C(=O)N[C@@H](CCCNC(=N)N)C(=O)N[C@@H](Cc1ccccc1)C(=O)O (H-VGGPPKRPESFKSMAELNAYLSDLAGYYTVIGRPRF-OH)
active: inhibition [1] | inhibition [2] | inhibition [3] | inhibition [4] | inhibition [5] | Activity [6] | inhibition [7] | inhibition [8] Dde | inhibition [9] | inhibition [10] Dde | inhibition [12] | inhibition [13] | inhibition [14] | inhibition [15] | inhibition [16] | inhibition [17] Dde | inhibition [18] | inhibition [19] | inhibition [20] | inhibition [21]
Non-Toxic: Activity [11]
